# Reference: US10131652B2, “Pyrimidinyloxy benzene derivatives as herbicides” (E. I. DU PONT DE NEMOURS AND COMPANY, priority 2014, dated 2018)
# Experiments:
# Type in all cases: in vivo
# [1] = test system: barnyardgrass (Echinochloa crus-galli); assay: Test B pre-/postemergence plant response
# Summary of the method: (§1)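 Visual injury scores on a 0–100 scale (100 = complete control) relative to untreated plants, taken about 10 days post-treatment in greenhouse. Treatments were a directed preemergence soil spray and a postemergence spray at one- to two-leaf stage, using surfactant-containing solvent formulation.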
# [2] = test system: corn (Zea mays); assay: Test B pre-/postemergence plant response
# Summary of the method: as §1
# [3] = test system: giant foxtail (Setaria faberii); assay: Test B pre-/postemergence plant response
# Summary of the method: as §1
# [4] = test system: pigweed (Amaranthus retroflexus); assay: Test B pre-/postemergence plant response
# Summary of the method: as §1
# [5] = test system: wheat (Triticum aestivum); assay: Test B pre-/postemergence plant response
# Summary of the method: as §1
# [6] = test system: Italian ryegrass (Lolium multiflorum); assay: Test D pre-/postemergence plant response; settings: Postemergence; for Plant response rating, Ryegrass, Italian: scale 0 to 100, 0 no effect, 100 complete control
# Summary of the method: (§2)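 Visual rating, 0–100 scale (0 = no effect, 100 = complete control), versus untreated controls 13 to 15 days after treatment in greenhouse. Preemergence: seeds in loam/sand soil. Postemergence: 2 to 18 cm plants, 1- to 4-leaf stage, peat-based medium. Compounds formulated in non-phytotoxic solvent plus surfactant.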
# [7] = test system: corn (Zea mays); assay: Test D pre-/postemergence plant response; settings: Postemergence; for Corn plant response rating: scale 0 to 100 (0 no effect, 100 complete control); for Plant response rating, Corn: scale 0 to 100, 0 no effect, 100 complete control
# Summary of the method: as §2
# [8] = test system: galium (catchweed bedstraw, Galium aparine); assay: Test D pre-/postemergence plant response; settings: Postemergence; for Plant response rating, Galium: scale 0 to 100, 0 no effect, 100 complete control
# Summary of the method: as §2
# [9] = test system: lambsquarters (Chenopodium album); assay: Test D pre-/postemergence plant response; settings: Postemergence; for Plant response rating, Lambsquarters: scale 0 to 100, 0 no effect, 100 complete control
# Summary of the method: as §2
# [10] = test system: large (Lg) crabgrass (Digitaria sanguinalis); assay: Test D pre-/postemergence plant response; settings: Postemergence; for Crabgrass, Large plant response rating: scale 0 to 100 (0 no effect, 100 complete control); for Plant response rating, Crabgrass, Large: scale 0 to 100, 0 no effect, 100 complete control
# Summary of the method: as §2
# [11] = test system: morningglory (Ipomoea coccinea); assay: Test D pre-/postemergence plant response; settings: Postemergence; for Plant response rating, Morningglory: scale 0 to 100, 0 no effect, 100 complete control
# Summary of the method: as §2
# [12] = test system: ragweed (common ragweed, Ambrosia elatior); assay: Test D pre-/postemergence plant response; settings: Postemergence; for Plant response rating, Ragweed: scale 0 to 100, 0 no effect, 100 complete control
# Summary of the method: as §2
# [13] = test system: soybean (Glycine max); assay: Test D pre-/postemergence plant response; settings: Postemergence; for Plant response rating, Soybean: scale 0 to 100, 0 no effect, 100 complete control
# Summary of the method: as §2
# [14] = test system: waterhemp (common waterhemp, Amaranthus rudis); assay: Test D pre-/postemergence plant response; settings: Postemergence; for Plant response rating, Waterhemp: scale 0 to 100, 0 no effect, 100 complete control
# Summary of the method: as §2
# [15] = test system: winter wheat (Triticum aestivum); assay: Test D pre-/postemergence plant response; settings: Postemergence; for Plant response rating, Wheat: scale 0 to 100, 0 no effect, 100 complete control
# Summary of the method: as §2
# [16] = test system: yellow nutsedge (Cyperus esculentus); assay: Test D pre-/postemergence plant response; settings: Postemergence; for Plant response rating, Nutsedge, Yellow: scale 0 to 100, 0 no effect, 100 complete control
# Summary of the method: as §2
# [17] = 31 g ai/ha, Preemergence, 0 to 100 scale where 0 is no effect and 100 is complete control
# [18] = 125 g ai/ha, postemergence, 0 to 100 scale, 0 no effect, 100 complete control
# [19] = Postemergence, 31 g ai/ha, 0 to 100 scale (0 no effect, 100 complete control)
# [20] = Preemergence, 125 g ai/ha, 0 to 100 scale (0 no effect, 100 complete control)
# [21] = 31 g ai/ha, scale 0 to 100 (0 no effect, 100 complete control)
compound,measurement,setting,value
CC(F)(F)c1cc(-c2ccccc2Oc2ncc(Br)cn2)no1 [Compound 149],"Plant response rating, Barnyardgrass",[1]; [17],10
same,"Plant response rating, Barnyardgrass",[1]; [18],40
same,"Plant response rating, Barnyardgrass",[1]; [19],10
same,Barnyardgrass plant response rating,[1]; [20],70
same,"Plant response rating, Corn",[2]; [18],20
same,"Plant response rating, Corn",[2]; [19],10
same,"Plant response rating, Foxtail, Giant",[3]; [17],70
same,"Plant response rating, Foxtail, Giant",[3]; [18],60
same,"Plant response rating, Foxtail, Giant",[3]; [19],10
same,"Foxtail, Giant plant response rating",[3]; [20],100
same,"Plant response rating, Pigweed",[4]; [17],80
same,"Plant response rating, Pigweed",[4]; [18],100
same,"Plant response rating, Pigweed",[4]; [19],90
same,Pigweed plant response rating,[4]; [20],100
same,"Plant response rating, Wheat",[5]; [18],10
same,"Plant response rating, Wheat",[5]; [19],0
same,"Ryegrass, Italian plant response rating",[6]; [21],0
same,"Plant response rating, Ryegrass, Italian",[6]; 62 g ai/ha,0
same,"Plant response rating, Ryegrass, Italian",[6]; 125 g ai/ha,0
same,Corn plant response rating,[7]; 16 g ai/ha,0
same,Corn plant response rating,[7]; 31 g ai/ha,5
same,"Plant response rating, Corn",[7]; 62 g ai/ha,5
same,"Plant response rating, Corn",[7]; 125 g ai/ha,5
same,Galium plant response rating,[8]; [21],60
same,"Plant response rating, Galium",[8]; 62 g ai/ha,70
same,"Plant response rating, Galium",[8]; 125 g ai/ha,95
same,Lambsquarters plant response rating,[9]; [21],70
same,"Plant response rating, Lambsquarters",[9]; 62 g ai/ha,80
same,"Plant response rating, Lambsquarters",[9]; 125 g ai/ha,85
same,"Crabgrass, Large plant response rating",[10]; 16 g ai/ha,5
same,"Crabgrass, Large plant response rating",[10]; 31 g ai/ha,5
same,"Plant response rating, Crabgrass, Large",[10]; 62 g ai/ha,10
same,"Plant response rating, Crabgrass, Large",[10]; 125 g ai/ha,15
same,Morningglory plant response rating,[11]; [21],60
same,"Plant response rating, Morningglory",[11]; 62 g ai/ha,70
same,"Plant response rating, Morningglory",[11]; 125 g ai/ha,80
same,Ragweed plant response rating,[12]; [21],30
same,"Plant response rating, Ragweed",[12]; 62 g ai/ha,30
same,"Plant response rating, Ragweed",[12]; 125 g ai/ha,45
same,Soybean plant response rating,[13]; [21],40
same,"Plant response rating, Soybean",[13]; 62 g ai/ha,65
same,"Plant response rating, Soybean",[13]; 125 g ai/ha,65
same,Waterhemp plant response rating,[14]; [21],80
same,"Plant response rating, Waterhemp",[14]; 62 g ai/ha,95
same,"Plant response rating, Waterhemp",[14]; 125 g ai/ha,100
same,Wheat plant response rating,[15]; [21],0
same,"Plant response rating, Wheat",[15]; 62 g ai/ha,0
same,"Plant response rating, Wheat",[15]; 125 g ai/ha,10
same,"Nutsedge, Yellow plant response rating",[16]; [21],0
same,"Plant response rating, Nutsedge, Yellow",[16]; 62 g ai/ha,5
same,"Plant response rating, Nutsedge, Yellow",[16]; 125 g ai/ha,5
